From the Biogen ADME set (Fang et al. 2023)
In brackets after ≈: the same amount, converted by molar mass.

Details: for aqueous solubility: pH 6.8

MDR1-MDCK efflux ratio | intrinsic clearance, human liver microsomes [mL/min/kg] | intrinsic clearance, rat liver microsomes [mL/min/kg] | aqueous solubility [µg/mL] | fraction unbound, human plasma | fraction unbound, rat plasma | Structure (SMILES)
0.701 | 7.14 | 46.3 | 11.2 (≈ 36.8 µM) |  |  | Cn1cc(-c2nnc(NCc3ccc4ccccc4c3)o2)cn1
2.78 | ≤ 4.74 | 19.9 |  |  |  | Cn1cc(CN2CCc3nc4ccccc4c(=O)n3CC2)cn1
1.35 | 25 | 1310 |  |  |  | c1cc(CNc2ncc(-c3cnccn3)c(C3CC3)n2)ccn1
 | 20 | 143 |  |  |  | O=c1n(Cc2ccncc2)nc2n1-c1cc(Cl)ccc1C1=NCCN12
0.837 | ≤ 4.74 | 119 |  |  |  | O=c1c2cccnc2ncn1[C@H]1CCCc2ccccc21
0.642 |  |  | 0.27 (≈ 0.895 µM) |  |  | Fc1ccc(-n2cc(/C=C/c3ccnnc3)nn2)cc1Cl
79.6 | 56.6 | 180 |  |  |  | Cn1cnnc1-c1cccc(NS(=O)(=O)c2ccc3c(c2)OCCCO3)c1
 | 1120 | 4670 | 8.5 (≈ 22.3 µM) |  |  | CSc1ccccc1NC(=O)CN1CCCC(c2nc3ccccc3o2)C1 (stereo unspecified)
4.56 | ≤ 4.74 | ≤ 10.7 | 33.6 (≈ 158 µM) |  |  | Cn1cnnc1CNc1ccccc1C#N
0.571 | 8.12 | 48.2 | 22.9 (≈ 74.3 µM) |  |  | Cc1nn(C)c2ncc(C(=O)Nc3ccc4c(c3)CCO4)cc12
1.3 | 33.2 | 1680 |  |  |  | COc1cc2cc3c(nc2cc1OC)OCCN(C1CCCCC1)C3
0.464 |  |  | 0.15 (≈ 0.415 µM) |  |  | COc1ccc2nc(C(=O)Nc3cnc4c(cnn4C(C)C)c3)ccc2c1
0.696 |  |  | 0.37 (≈ 1.06 µM) |  |  | O=c1c(=O)n(-c2ccc(F)c(F)c2)ccn1Cc1ccccc1Cl
0.917 | 130 |  |  | 0.00283 | 0.0053 | Cc1cccc(/C=N/Nc2cc(N3CCOCC3)nc(OCCc3ccccn3)n2)c1
0.661 | ≤ 4.74 | ≤ 10.7 | 32.2 (≈ 136 µM) |  |  | CS(=O)(=O)Cc1ccn(-c2ccccc2)n1
 |  |  | 33.1 (≈ 86.3 µM) |  |  | Cc1ccc(S(=O)(=O)NC(=O)c2c(C)cc3n2CCn2c(C)ccc2-3)cc1
6.96 | ≤ 4.74 | 44.1 |  |  |  | CSc1ncccc1C(=O)Nc1ccc(-c2nnc(C)[nH]2)cc1
 | 36.2 | 643 |  |  |  | COc1cc(C)nc(N2CCN(c3ccc4ccccc4n3)CC2)n1
0.596 | 18.2 | 492 |  |  |  | COCC1(CNC(=O)c2ccc(-n3cccn3)cc2)CCC1
0.573 | 103 | 906 |  |  |  | O=c1c2oc3ccccc3c2ncn1Cc1ccc(Cl)cc1

Continued, molecule first:

Structure (SMILES) | MDR1-MDCK efflux ratio | intrinsic clearance, human liver microsomes [mL/min/kg] | intrinsic clearance, rat liver microsomes [mL/min/kg] | aqueous solubility [µg/mL] | fraction unbound, human plasma | fraction unbound, rat plasma
Clc1ccc(NCc2ccoc2)nn1 | 0.594 | ≤ 4.74 | ≤ 10.7 | 21.5 (≈ 102 µM) |  | 
Cc1cc(C(=O)N2CCC(C(=O)c3ccnn3C)CC2)sc1C | 0.723 | 36.7 | 957 |  |  | 
CC(C)CCN1CCC(CNC(=O)C2CC=CC2)CC1 | 3.77 | 12.5 | 141 |  |  | 
O=C1NCN(c2ccccc2)C12CCN(CCCOc1ccc(F)cc1)CC2 |  | 74.3 | 548 | 50.9 (≈ 133 µM) |  | 
CC(C)(C)c1ccc(CN2CCC(C(N)=O)CC2)cc1 | 0.975 | ≤ 4.74 | 144 | 47.8 (≈ 174 µM) |  | 
CC1CC1C(=O)N1CCC(n2c(=O)[nH]c3ccccc32)CC1 (stereo unspecified) |  | ≤ 4.74 | 162 | 32.2 (≈ 108 µM) |  | 
CN(C(=O)c1cc(N2CCNC2=O)ccc1F)C1CCC(N)CC1 (stereo unspecified) | 1.02 | ≤ 4.74 |  |  | 0.674 | 
CN(C)c1nccc(N2CCN(CCCCCF)CC2)n1 | 0.419 | 32.4 | 1440 |  |  | 
CC(C)(O)CNc1ncc(-c2ccnc(Nc3ccnc(Cl)c3)n2)c(CC2CC2)n1 | 10.5 | 23.6 | 149 | 21.9 (≈ 51.5 µM) |  | 
COc1ccccc1/C=C/CN1CCCC2(C1)OCCO2 | 0.549 | 17.7 | 2180 |  |  | 
CC#CC(=O)N[C@H]1CCCN(c2c(F)cc(C(N)=O)c3[nH]c(C)c(C)c23)C1 | 7.25 | 25 | 238 | 10.8 (≈ 29.2 µM) | 0.0146 | 0.00229
CCc1nnc(N2CC(N(C)C)C2)c(C#N)c1CC | 0.843 | 9.15 | 130 |  |  | 
O=C(C1CC1)N1CCC(CNS(=O)(=O)N2CCCCCC2)CC1 | 15.2 | 40.4 | 1320 |  |  | 
COC1CCN(C(=O)Nc2cc(C(F)(F)F)cc(C(F)(F)F)c2)CC1 | 0.476 | 60 | 158 | 71.4 (≈ 193 µM) |  | 
CC(C)(C)CCCNC(=O)N1CCN(Cc2ccon2)CC1 | 1.5 | 17.1 | 623 |  |  | 
CCc1ccc(CNc2nncs2)o1 | 0.666 | 7.77 | 46.9 |  |  | 
COCc1nc(C2CCN(CCO)CC2)no1 |  | ≤ 4.74 | 72.4 | 36.1 (≈ 150 µM) |  | 
O=C(Cc1ccc(Cl)c(Cl)c1)N1CC(n2ccnn2)C1 | 2.09 | ≤ 4.74 | 51.8 | 31 (≈ 99.7 µM) |  | 
O=C(Nc1ccc(COC2CCCC2)cc1)N1CCC(CO)CC1 | 5.55 | ≤ 4.74 | 329 |  |  | 
OCCN1CCN(c2ccnc3ccc(Br)cc23)CC1 | 1.74 | 12.5 | 114 |  |  | 
CC(/C=C/C(=O)NO)=C\[C@@H](C)C(=O)c1ccc(N(C)C)cc1 | 5.29 | 23.3 | 152 | 22.1 (≈ 73.1 µM) |  | 
CCOc1ccc2nc3c(cc2c1)CN(CCOC)C(=O)O3 |  | 12 | 215 |  |  | 
Nc1ccccc1OCCn1ccnc1 | 0.815 | 7.07 | 30.6 | 24.7 (≈ 121 µM) |  | 
